Key:
Format in all cases: biochemical
[1] = target: T1, tryptophan 2,3-dioxygenase 2 (TDO2) (Homo sapiens, UniProt P48775); assay: purified recombinant enzyme assay, kynurenine absorbance at […] nm; also kynurenine reduction in TDO2-293T cells
[2] = target: T2, indoleamine 2,3-dioxygenase 1 (IDO1) (Homo sapiens, UniProt P14902); assay: purified recombinant enzyme assay, kynurenine absorbance at […] nm; also kynurenine reduction in IDO1-293T cells
T2 construct: full-length, N-terminal His-AK tag (His-AK-IDO1)
T2 sequence (P14902 whole entry): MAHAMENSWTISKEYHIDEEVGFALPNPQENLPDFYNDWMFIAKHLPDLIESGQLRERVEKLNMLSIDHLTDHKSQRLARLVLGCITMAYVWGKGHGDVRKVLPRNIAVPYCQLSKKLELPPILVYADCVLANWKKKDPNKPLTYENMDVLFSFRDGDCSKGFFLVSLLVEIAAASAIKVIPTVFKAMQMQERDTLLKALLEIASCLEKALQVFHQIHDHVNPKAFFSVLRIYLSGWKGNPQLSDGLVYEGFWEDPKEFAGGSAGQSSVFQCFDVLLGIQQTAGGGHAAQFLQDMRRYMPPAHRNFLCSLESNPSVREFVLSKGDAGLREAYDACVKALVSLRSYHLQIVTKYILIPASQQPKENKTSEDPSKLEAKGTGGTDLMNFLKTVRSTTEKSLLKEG

[3] = target: T1, tryptophan 2,3-dioxygenase 2 (TDO2); assay: purified recombinant enzyme assay, kynurenine absorbance at […] nm
[4] = target: T2, indoleamine 2,3-dioxygenase 1 (IDO1); assay: purified recombinant enzyme inhibitor screen (compounds at […]), kynurenine absorbance at […] nm

T1 sequence (P48775 whole entry): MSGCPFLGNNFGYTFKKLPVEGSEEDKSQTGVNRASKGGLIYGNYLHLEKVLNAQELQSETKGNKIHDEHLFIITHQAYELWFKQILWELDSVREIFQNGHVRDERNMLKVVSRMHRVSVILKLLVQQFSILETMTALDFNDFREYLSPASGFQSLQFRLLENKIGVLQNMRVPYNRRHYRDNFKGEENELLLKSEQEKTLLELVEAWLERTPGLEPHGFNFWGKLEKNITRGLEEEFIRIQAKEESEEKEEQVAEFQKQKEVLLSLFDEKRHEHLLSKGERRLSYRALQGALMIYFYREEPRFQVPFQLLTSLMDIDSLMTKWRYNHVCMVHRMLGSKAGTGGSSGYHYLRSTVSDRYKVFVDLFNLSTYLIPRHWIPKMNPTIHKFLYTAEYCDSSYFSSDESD

Cc1c(S(=O)(=O)O)oc2c1C(=O)C(=O)c1c-2ccc2c1CCCC2(C)C [STS, Sodium tanshinone IIA sulfonate]
IC50 [1]: < 10 µM | IC50 [2]: < 10 µM

Cc1coc2c1C(=O)C(=O)c1c-2ccc2c1CCCC2(C)C [TSN, tanshinone IIA]
purified recombinant enzyme assay, kynurenine absorbance at 490 nm [3]: TSN only reduced the activity of TDO2 but not IDO1 (Figure 1C)

COc1c(O)cc2oc3cc(O)c(CC=C(C)C)c(O)c3c(=O)c2c1CC=C(C)C [mangostin]
purified recombinant enzyme inhibitor screen (compounds at 10 μM), kynurenine ab [4]: several compounds, including mangostin and androstenedione, could inhibit the activity of IDO1 (Supplementary Figures S1A,B)
